{
  "source": "patent US20090297637A1",
  "key": {"TNF-RE tkLuc": {"test_system": "TNF-RE tkLuc", "experiment": "Activation of TNF-RE tkLuc reporter (Example 2)", "type": "cell-based, human", "conditions": "for effect on the repression induced by E2: TNF-RE tkLuc", "description": "(§1) Plasmid Construction. […] ERβ mutants were created with QuikChange site-directed mutagenesis kits (Stratagene), by using oligonucleotides containing the mutation. The mutants were sequenced with Sequenase kits (Amersham Pharmacia) to verify the presence of the mutation."}, "ERβ [1]": {"target": "T1, ERβ (Homo sapiens, UniProt Q92731)", "T1 sequence (Q92731 whole entry)": "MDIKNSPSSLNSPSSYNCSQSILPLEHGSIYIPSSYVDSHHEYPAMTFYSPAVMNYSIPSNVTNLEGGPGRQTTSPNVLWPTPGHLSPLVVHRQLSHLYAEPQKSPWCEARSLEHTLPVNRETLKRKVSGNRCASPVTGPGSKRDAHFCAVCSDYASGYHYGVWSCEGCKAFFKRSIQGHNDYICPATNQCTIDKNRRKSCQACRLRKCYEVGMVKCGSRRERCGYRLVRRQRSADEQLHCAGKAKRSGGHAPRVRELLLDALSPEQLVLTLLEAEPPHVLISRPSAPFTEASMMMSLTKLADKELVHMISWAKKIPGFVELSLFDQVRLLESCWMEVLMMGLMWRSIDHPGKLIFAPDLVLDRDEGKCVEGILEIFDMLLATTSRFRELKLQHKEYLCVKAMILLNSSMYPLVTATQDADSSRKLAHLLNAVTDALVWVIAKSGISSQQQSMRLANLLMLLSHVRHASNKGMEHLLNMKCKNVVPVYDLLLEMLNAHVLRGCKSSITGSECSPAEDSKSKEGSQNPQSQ", "experiment": "ERE-tk-Luc luciferase assay in U2OS osteosarcoma cells", "type": "cell-based", "set-up": "expressed in transfected cells; host or cells: U2OS (human osteosarcoma)", "conditions": "co-administration with the extract"}, "breast cancer [2]": {"test_system": "breast cancer", "conditions": "among 5129 women in the treatment group, median follow-up 40 months; cited from earlier work"}, "breast cancer [3]": {"test_system": "breast cancer", "conditions": "cited from earlier work"}, "ERβ [4]": {"target": "T1, ERβ", "conditions": "in the presence of ERβ", "description": "as §1"}, "ERβ [5]": {"target": "T1, ERβ", "experiment": "Repression of TNF-α activation of TNF-RE tkLuc in U2OS cells", "type": "cell-based", "set-up": "expressed in transfected cells"}},
  "data": [
    {"compound": "O=C(c1ccc(OCCN2CCCCC2)cc1)c1c(-c2ccc(O)cc2)sc2cc(O)ccc12", "note": "[raloxifene]", "values": [
      {"measurement": "activation of TNF-RE tkLuc by antiestrogens", "setting": "TNF-RE tkLuc", "result": 2, "unit": "fold"},
      {"measurement": "effect on the repression induced by E2", "setting": "TNF-RE tkLuc", "result": "abolished the repression induced by E2"},
      {"measurement": "effect of anti-estrogen on extract-stimulated ERE-tk-Luc expression", "setting": "ERβ [1]; FIG. 5", "result": "counteracted"},
      {"measurement": "effect of anti-estrogen on extract-stimulated ERE-tk-Luc expression", "setting": "ERβ [1]; FIG. 5, listed as Raloxifene", "result": "attenuated"},
      {"measurement": "cases of breast cancer", "setting": "breast cancer [2]", "result": 13, "unit": "cases"}
    ]},
    {"compound": "CC/C(=C(\\c1ccccc1)c1ccc(OCCN(C)C)cc1)c1ccccc1", "note": "[tamoxifen]", "values": [
      {"measurement": "activation of TNF-RE tkLuc by antiestrogens", "setting": "TNF-RE tkLuc", "result": 2, "unit": "fold"},
      {"measurement": "effect on the repression induced by E2", "setting": "TNF-RE tkLuc", "result": "abolished the repression induced by E2"},
      {"measurement": "reduction of the risk of primary invasive breast cancer", "setting": "breast cancer [3]; BCPT, women at high risk for breast cancer", "result": 49, "unit": "%"},
      {"measurement": "reduction of the risk of recurrences", "setting": "breast cancer [3]; five years of therapy, ER-positive breast cancer", "result": 42, "unit": "%"},
      {"measurement": "reduction of mortality from breast cancer", "setting": "breast cancer [3]; five years of therapy", "result": 22, "unit": "%"}
    ]},
    {"compound": "C[C@]12CC[C@@H]3c4ccc(O)cc4CC[C@H]3[C@@H]1CC[C@@H]2O", "note": "[Herb E2, estradiol]", "values": [
      {"measurement": "repression of TNF-α activation of TNF-RE tkLuc", "setting": "ERβ [4]", "result": "60-80%"},
      {"measurement": "repression of TNF-α activation of TNF-RE", "setting": "ERβ [5]", "result": 100, "unit": "%"}
    ]},
    {"compound": "TNF-α", "values": [
      {"measurement": "activation of 3 copies of the TNF-RE (−125 to −82) upstream of the tk promoter", "setting": "TNF-RE tkLuc; TNF-α as stimulus", "result": "5-10 fold"}
    ]},
    {"compound": "C[C@]12CC[C@@H]3c4ccc(O)cc4C[C@@H](CCCCCCCCC[S+]([O-])CCCC(F)(F)C(F)(F)F)[C@H]3[C@@H]1CC[C@@H]2O", "note": "(some centres unmarked) [ICI 182780]", "values": [
      {"measurement": "activation of TNF-RE tkLuc by antiestrogens", "setting": "TNF-RE tkLuc", "result": 2, "unit": "fold"},
      {"measurement": "effect on the repression induced by E2", "setting": "TNF-RE tkLuc", "result": "abolished the repression induced by E2"},
      {"measurement": "effect of anti-estrogen on extract-stimulated ERE-tk-Luc expression", "setting": "ERβ [1]; FIG. 5", "result": "counteracted"},
      {"measurement": "effect of anti-estrogen on extract-stimulated ERE-tk-Luc expression", "setting": "ERβ [1]; FIG. 5, listed as ICI", "result": "attenuated"}
    ]}
  ]
}
